Experimental data published in US9205119B2, “Neuroprotective compositions and methods” (Rutgers, The State University of New Jersey, priority 2009, dated 2015).

Columns and labels:
Type in all cases: in vivo
[1] = test system: pMCAO mice (ipsilateral cortex degenerating neurons); experiment: Fluoro Jade B staining to determine degenerating neurons after pMCAO; conditions: 30 mg/kg 2 hr before and 6 hr after pMCAO, 24 h after MCAO
Description: We used brain coronal sections […] for Fluoro Jade B staining to determine degenerating neurons, as previously described. (Rajanikant, G. K., et al., Stroke, 38:3023-31 (2007)). In brief, the brain sections on glass slides were dried overnight, immersed for 3 min in 100% ethanol, for 1 min in 70% ethanol, and for 1 min in distilled water, and then incubated in a solution containing 0.01% Fluoro-Jade B (Histo-Chem Inc., Jefferson, Ark.) and 0.1% acetic acid (1:10) for 30 min on a shaker. After three 10-min washes, the slides were coverslipped, and labeled sections were visualized with a confocal laser-scanning microscope.

[2] = test system: pMCAO mice (permanent middle cerebral artery occlusion, focal cerebral ischemia); experiment: TTC staining to determine infarct volume after pMCAO; conditions: 30 mg/kg intraperitoneally 2 hr before and 6 hr after pMCAO, measured 24 hr post-pMCAO by TTC staining
Description: Human stroke typically involves disruption of blood flow to a specific region supplied often by the middle cerebral artery (MCA). The classical animal model of focal ischemia, MCA occlusion (MCAO), produces the problem of long-term vessel blockade, simulating what often occurs in human stroke. We have induced focal cerebral ischemia in mice by cauterizing the MCA. To evaluate the acute injury induced by MCAO, animals were euthanized at 24 h after MCAO, and the infarct volume was determined using 2,3,5-triphenyltetrazolium chloride (TTC) staining. (Rajanikant, G. K., et al., Stroke, 38:3023-31 (2007)). In brief, 24 hours after pMCAO, animals were deeply anesthetized with an injection of pentobarbital (70 mg/kg, i.p.) and subjected to intracardiac perfusion with 100 mL of isotonic saline delivered through an electronic pump at 100 mm Hg. The head was then removed with a small animal guillotine and the brain carefully dissected out en bloc. After a brief (<1 minute) period of cooling on a bed of ice, the brain was sliced coronally at 1-mm intervals. […] The infarct area was then quantified from the scanned images using the NIH Image J analysis software (version 1.38). […] Vehicle or various doses (3, 30, 50 or 90 mg/kg) of KB-3 or KB-3a were administered intraperitoneally 2 hr before and 6 hr after pMCAO and the infarct volume was measured at 24 hr post-pMCAO by TTC staining. […]

pMCAO mice [3] = experiment: Elevated body-swing test (EBST) after pMCAO; conditions: intraperitoneally 2 hr pre- and 6 hr post-pMCAO, 24 hr after ischemia, vehicle 66.4±4.9, pre-operated 50.55±1.05
Description: In addition, the elevated body-swing test (EBST), described in detail by Borlongan et al, was used by us to assess asymmetric motor behavior. (Borlongan, C. V. and Sanberg, P. R., J. Neurosci., 15:5372-8 (1995)). Mice were held by the base of the tail and elevated about 10 cm from the tabletop. The direction of body swing, defined as an upper body turn of >10° to either side, was recorded for 1 min during each of three trials. The number of left and right turns was counted, and the percentage of turns made to the side contralateral to the ipsilateral hemisphere (% right-biased swing) was determined. (Ishibashi, S., et al., Exp. Neurol., 207:302-13 (2007)). The EBST was used to detect asymmetry in motor behavior at 24 hr post-pMCAO.

pMCAO mice [4] = experiment: Neurological deficit scoring (18-point scale, Garcia) after pMCAO; conditions: 30 mg/kg, 24 hr post-pMCAO, mean±SEM, vehicle 12.3±0.48, preoperative 17.5±0.29
Description: To determine whether KB-3a-induced reduction in infarct volume and neuronal degeneration could translate into functional recovery, neurological evaluations were performed right before the surgery and 24 hr following pMCAO. The neurobehavioral deficit scoring system consists of six tests as previously described in detail, which include: (1) spontaneous activity, (2) symmetry of four limb movement, (3) forepaw outstretching while held by tail, (4) climbing wall of wire cage, (5) reaction to touch on either side of trunk, and (6) response to vibrissae touch. (See Garcia, J. H., et al., Stroke, 26:627-34 (1995)). The neurological score given to each mouse at the completion of the evaluation is the summation of all six individual test scores. The minimum neurological score is 3 and the maximum is 18. Using the 18 point-based scale, the normal mean preoperative neurological score was 17.5±0.29.

Structure (SMILES)	reduction of Fluoro-Jade B staining within the ipsilateral cortex compared to vehicle control [1]	reduction in infarct volume compared with vehicle-treated group [2]	percent right-biased swing (EBST) (pMCAO mice [3])	neurological score (18 point-based scale) (pMCAO mice [4])
CC(=O)Oc1cc(C)c(OC(C)=O)c(CC=C(C)CCC=C(C)CCC=C(CCC=C(C)C)C(=O)O)c1 [KB-3a, 1,4-diacetyl-sargahydroquinoic acid]	approximately 50%	approximately 54%	52.16±1.8%	17±0.41
CC(C)=CCC/C(=C/CC/C(C)=C/CC/C(C)=C/Cc1cc(O)cc(C)c1O)C(=O)O [KB-3, sargahydroquinoic acid]		approximately 48%		
